According to US20110288086A1, “POLYCYCLIC QUINAZOLINES, PREPARATION THEREOF, AND USE THEREOF” (priority 2010, published 2011):

Columns and labels:
aurora kinase B = target: T1, aurora kinase B (Homo sapiens, UniProt Q96GD4); assay: Aurora kinase B inhibition in vitro (Invitrogen aurora kinase screening kit PV3174); format: biochemical
T1 construct: purchased Invitrogen PV3174

EGFR tyrosine kinase = EGFR tyrosine kinase (Homo sapiens, UniProt P00533); assay: EGFR tyrosine kinase inhibition in vitro (Invitrogen EGFR inhibitor screening kit PV3193)
Chain of EGFR tyrosine kinase (P00533 25-1210): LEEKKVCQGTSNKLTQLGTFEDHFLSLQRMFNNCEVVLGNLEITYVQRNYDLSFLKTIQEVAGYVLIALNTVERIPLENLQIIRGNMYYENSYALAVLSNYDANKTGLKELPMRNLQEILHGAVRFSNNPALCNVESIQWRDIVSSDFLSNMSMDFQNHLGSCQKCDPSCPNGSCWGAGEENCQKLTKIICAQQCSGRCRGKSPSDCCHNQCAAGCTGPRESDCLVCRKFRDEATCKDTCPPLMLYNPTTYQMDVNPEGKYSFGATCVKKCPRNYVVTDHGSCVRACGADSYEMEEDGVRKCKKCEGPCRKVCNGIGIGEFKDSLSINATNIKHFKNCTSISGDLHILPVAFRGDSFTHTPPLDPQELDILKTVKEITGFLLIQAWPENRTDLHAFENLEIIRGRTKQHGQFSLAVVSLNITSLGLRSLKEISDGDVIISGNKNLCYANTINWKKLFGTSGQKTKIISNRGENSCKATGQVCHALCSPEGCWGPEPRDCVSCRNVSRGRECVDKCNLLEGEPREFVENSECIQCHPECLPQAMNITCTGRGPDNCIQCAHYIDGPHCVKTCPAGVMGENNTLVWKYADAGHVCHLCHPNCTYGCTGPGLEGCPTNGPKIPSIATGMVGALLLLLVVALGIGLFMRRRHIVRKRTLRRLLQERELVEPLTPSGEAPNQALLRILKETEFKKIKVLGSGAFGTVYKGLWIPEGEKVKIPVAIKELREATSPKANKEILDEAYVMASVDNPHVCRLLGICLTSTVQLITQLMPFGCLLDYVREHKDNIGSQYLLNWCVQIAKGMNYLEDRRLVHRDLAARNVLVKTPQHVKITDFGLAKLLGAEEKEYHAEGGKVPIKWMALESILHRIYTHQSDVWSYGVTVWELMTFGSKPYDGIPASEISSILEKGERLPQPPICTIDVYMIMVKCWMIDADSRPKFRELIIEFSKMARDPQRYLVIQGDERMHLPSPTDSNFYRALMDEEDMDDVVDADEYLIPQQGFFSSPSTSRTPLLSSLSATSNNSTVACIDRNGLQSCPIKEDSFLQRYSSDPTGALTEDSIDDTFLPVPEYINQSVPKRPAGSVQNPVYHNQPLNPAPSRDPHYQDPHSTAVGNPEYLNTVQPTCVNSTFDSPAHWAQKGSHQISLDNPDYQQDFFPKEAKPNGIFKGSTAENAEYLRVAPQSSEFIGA
From the text: The inhibitory activities of EGFR tyrosine kinase in vitro
Erlotinib hydrochloride was used as a positive control drug.

T1 sequence (Q96GD4 whole entry): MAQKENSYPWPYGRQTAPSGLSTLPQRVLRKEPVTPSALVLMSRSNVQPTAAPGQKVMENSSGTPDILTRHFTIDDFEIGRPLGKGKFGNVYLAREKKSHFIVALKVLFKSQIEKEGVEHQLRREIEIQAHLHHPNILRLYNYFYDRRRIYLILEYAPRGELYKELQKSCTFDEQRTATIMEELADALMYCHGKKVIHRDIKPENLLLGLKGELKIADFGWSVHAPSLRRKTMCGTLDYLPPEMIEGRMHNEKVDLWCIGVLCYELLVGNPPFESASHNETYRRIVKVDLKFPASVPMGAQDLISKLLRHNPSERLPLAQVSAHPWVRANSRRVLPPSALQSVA

SMILES | The inhibition ratio of the compound on Aurora B(%) (aurora kinase B; 40 μM) | The inhibition ratio of the compound on Aurora B(%) (aurora kinase B; 200 μM) | The inhibition ratio of the compound on EGFR(%) (EGFR tyrosine kinase; 40 μM) | The inhibition ratio of the compound on EGFR(%) (EGFR tyrosine kinase; 200 μM)
COc1cc2c(cc1OCCCN1CCOCC1)C1=Nc3cc(COS(C)(=O)=O)cc([N+](=O)[O-])c3CN1C=N2 [Compound V-29] | 11.2 | 78.9 | 35.2 | 86.5
COc1cc2c(cc1OC)C1=Nc3ccc(F)c(Cl)c3CN1C=N2 [Compound V-30, 9-chloro-10-fluoro-2,3-dimethoxy-8H-quinazolino[4,3-b]quinazoline] | 46.3 | 79.6 | 27.8 | 82.1
Cc1cc(Nc2cc(N3CCN(C)CC3)nc(Sc3ccc(NC(=O)C4CC4)cc3)n2)n[nH]1 [VX-680, reference compound] | 35.2 | 81.6 | – | –

Other lines, results leading:

The inhibition ratio of the compound on Aurora B(%) (aurora kinase B; 40 μM) | The inhibition ratio of the compound on Aurora B(%) (aurora kinase B; 200 μM) | The inhibition ratio of the compound on EGFR(%) (EGFR tyrosine kinase; 40 μM) | The inhibition ratio of the compound on EGFR(%) (EGFR tyrosine kinase; 200 μM) | SMILES
40.1 | 87.9 | 25.8 | 62.7 | COCCOc1cc2c(cc1OCCOC)C1=Nc3cccc(NC(=O)c4ccccc4)c3CN1C=N2 [Compound V-12, N-{2,3-bis(2-methoxyethoxy)-8H-quinazolino[4,3-b]quinazoline}benzamide]
17.8 | 92.6 | 21.6 | 72.6 | CS(=O)(=O)CCNCc1ccc(-c2ccc3c(c2)C2=Nc4ccc(F)c(Cl)c4CN2C=N3)o1 [Compound V-34, N-((5-(9-chloro-10-fluoro-8H-quinazolino[4,3-b]quinazoline-2-yl)furan-2-yl)methyl)-2-(methylsulfonyl)ethylamine]
3.3 | 79.8 | 13.3 | 75.8 | C#Cc1cccc2c1CN1C=Nc3ccc(-c4ccc(CNCCS(C)(=O)=O)o4)cc3C1=N2 [Compound V-35, N-((5-(9-ethynyl-8H-quinazolino[4,3-b]quinazoline-2-yl)furan-2-yl)methyl)-2-(methylsulfonyl)ethylamine]
52.6 | 97.9 | 55.6 | 87.9 | CS(=O)(=O)CCNCc1ccc(-c2ccc3c(c2)C2=Nc4cc(Cl)ccc4CN2C=N3)o1 [Compound V-36, N-((5-(11-chloro-8H-quinazolino[4,3-b]quinazoline-2-yl)furan-2-yl)methyl)-2-(methylsulfonyl)ethylamine]
